# Laboratory results: ChEMBL document CHEMBL5506064, “Discovery of ITI-333, a Novel Orally Bioavailable Molecule Targeting Multiple Receptors for the Treatment of Pain and Other Disorders” (J Med Chem, 2024)
# Active and inactive are the calls of the source. The rule behind the calls is not given here.
# Columns and labels:
# [1] = target: Sodium-dependent serotonin transporter (Homo sapiens) (UniProt P31645); assay: Displacement of [3H]-imipramine from human 5-HT transporter expressed in CHO cell membrane assessed as inhibition of radioligand binding at 100 nM incubated for 60 mins by competition binding based scintillation counter analysis relative to control; type: cell membranes
# Sodium-dependent serotonin transporter (Homo sapiens), sequence (P31645 whole entry, looked up): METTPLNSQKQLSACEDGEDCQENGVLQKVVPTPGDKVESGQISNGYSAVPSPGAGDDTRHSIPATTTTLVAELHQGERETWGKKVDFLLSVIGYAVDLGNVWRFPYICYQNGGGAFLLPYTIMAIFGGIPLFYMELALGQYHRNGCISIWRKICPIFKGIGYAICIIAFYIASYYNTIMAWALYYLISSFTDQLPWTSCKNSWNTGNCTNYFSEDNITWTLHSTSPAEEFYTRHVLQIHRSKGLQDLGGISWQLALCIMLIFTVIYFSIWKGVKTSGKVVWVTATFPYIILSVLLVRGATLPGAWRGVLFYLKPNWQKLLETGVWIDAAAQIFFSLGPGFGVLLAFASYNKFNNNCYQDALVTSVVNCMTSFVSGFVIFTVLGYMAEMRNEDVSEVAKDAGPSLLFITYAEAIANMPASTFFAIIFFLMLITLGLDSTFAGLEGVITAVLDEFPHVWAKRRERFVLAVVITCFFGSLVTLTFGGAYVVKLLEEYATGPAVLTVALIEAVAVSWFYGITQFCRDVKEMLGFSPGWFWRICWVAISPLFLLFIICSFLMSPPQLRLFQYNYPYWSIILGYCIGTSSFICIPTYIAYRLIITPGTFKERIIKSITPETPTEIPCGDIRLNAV
# [2] = target: 5-hydroxytryptamine receptor 2A (Homo sapiens) (UniProt P28223); assay: Displacement of [125I]DOI from human 5-HT2A receptor expressed in HEK293 cell membrane assessed as inhibition of radioligand binding at 100 nM incubated for 60 mins by competition binding based scintillation counter analysis relative to control; type: cell membranes
# 5-hydroxytryptamine receptor 2A (Homo sapiens), sequence (P28223 whole entry): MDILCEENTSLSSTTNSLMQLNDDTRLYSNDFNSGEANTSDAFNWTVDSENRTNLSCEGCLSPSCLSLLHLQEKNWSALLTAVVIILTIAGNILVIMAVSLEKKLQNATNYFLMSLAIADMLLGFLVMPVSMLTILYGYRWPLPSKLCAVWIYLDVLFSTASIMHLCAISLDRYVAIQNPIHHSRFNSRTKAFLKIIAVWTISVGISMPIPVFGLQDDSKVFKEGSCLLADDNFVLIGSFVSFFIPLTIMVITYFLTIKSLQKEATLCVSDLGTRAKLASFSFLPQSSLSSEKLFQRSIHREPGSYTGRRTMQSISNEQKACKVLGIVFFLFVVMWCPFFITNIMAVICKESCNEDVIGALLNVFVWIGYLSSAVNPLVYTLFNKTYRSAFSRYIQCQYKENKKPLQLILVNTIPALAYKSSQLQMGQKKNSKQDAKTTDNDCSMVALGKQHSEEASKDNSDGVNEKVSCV
# [3] = target: D(1A) dopamine receptor (Homo sapiens) (UniProt P21728); assay: Displacement of [3H]SCH-23390 from human dopamine D1 receptor expressed in CHO cell membrane assessed as inhibition of radioligand binding at 100 nM incubated for 60 mins by competition binding based scintillation counter analysis relative to control; type: cell membranes
# D(1A) dopamine receptor (Homo sapiens), sequence (P21728 whole entry): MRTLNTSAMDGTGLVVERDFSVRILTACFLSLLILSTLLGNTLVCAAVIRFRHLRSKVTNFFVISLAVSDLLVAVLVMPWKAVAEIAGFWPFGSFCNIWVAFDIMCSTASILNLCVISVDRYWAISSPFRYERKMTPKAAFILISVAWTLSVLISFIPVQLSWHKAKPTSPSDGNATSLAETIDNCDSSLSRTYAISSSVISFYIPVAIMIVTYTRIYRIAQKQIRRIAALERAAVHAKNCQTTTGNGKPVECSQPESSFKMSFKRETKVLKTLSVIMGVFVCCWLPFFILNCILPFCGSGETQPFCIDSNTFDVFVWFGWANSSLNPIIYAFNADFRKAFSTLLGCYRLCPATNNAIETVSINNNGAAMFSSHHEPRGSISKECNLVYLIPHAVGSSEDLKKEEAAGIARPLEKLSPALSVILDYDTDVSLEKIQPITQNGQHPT
# [4] = target: D(2) dopamine receptor (Homo sapiens) (UniProt P14416); assay: Displacement of [3H]7-OH-DPAT from human dopamine D2 receptor expressed in HEK293 cell membrane assessed as inhibition of radioligand binding at 100 nM incubated for 60 mins by competition binding based scintillation counter analysis relative to control; type: cell membranes
# D(2) dopamine receptor (Homo sapiens), sequence (P14416 whole entry): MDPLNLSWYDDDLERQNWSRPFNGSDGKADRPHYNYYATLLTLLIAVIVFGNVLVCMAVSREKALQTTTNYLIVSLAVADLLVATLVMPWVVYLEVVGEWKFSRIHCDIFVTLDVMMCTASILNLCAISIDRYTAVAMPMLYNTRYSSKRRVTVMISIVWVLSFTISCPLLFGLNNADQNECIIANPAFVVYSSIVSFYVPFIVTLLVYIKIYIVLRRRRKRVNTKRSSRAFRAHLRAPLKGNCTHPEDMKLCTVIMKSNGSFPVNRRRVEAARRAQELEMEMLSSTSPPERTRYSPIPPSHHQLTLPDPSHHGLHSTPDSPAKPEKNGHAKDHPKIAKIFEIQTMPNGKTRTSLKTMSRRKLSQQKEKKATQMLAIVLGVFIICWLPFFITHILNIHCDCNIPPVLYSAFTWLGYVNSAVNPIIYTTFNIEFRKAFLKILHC
# [5] = target: Sodium-dependent serotonin transporter (Homo sapiens) (UniProt P31645); assay: Displacement of [3H]-imipramine from human 5-HT transporter expressed in CHO cell membrane assessed as inhibition of radioligand binding at 200 nM incubated for 60 mins by competition binding based scintillation counter analysis relative to control; type: cell membranes
# Mus musculus [6] = assay: Analgesic activity in thermal stimulated CD-1 mouse assessed as increase in latency to pain response at 5 mg/kg,SC administration measured after 30 mins by tail flick assay; type: functional, organism-based
# Mus musculus [7] = assay: Analgesic activity in naloxone induced CD-1 mouse assessed as increase in latency to pain response at 5 mg/kg,po administration measured after 30 mins by tail flick assay; type: functional, organism-based
# Mus musculus [8] = assay: Analgesic activity against formalin-induced inflammatory pain C57Bl/6 mouse model assessed as reduction in licking response at 5 mg/kg,SC pretreated for 30 min followed by formalin challenge and measured after 30 mins; type: functional, organism-based; settings: time 60.0 min
# [9] = target: T1, Alpha-1A adrenergic receptor (Homo sapiens) (UniProt P35348); assay: Antagonist activity at human alpha 1A adrenergic receptor expressed in CHO-K1 cells assessed as inhibition of phenylephrine induced […] calcium response at <= 10 uM by whole cell-based assay; type: functional; settings: filed as antagonist
# T1 sequence (whole entry): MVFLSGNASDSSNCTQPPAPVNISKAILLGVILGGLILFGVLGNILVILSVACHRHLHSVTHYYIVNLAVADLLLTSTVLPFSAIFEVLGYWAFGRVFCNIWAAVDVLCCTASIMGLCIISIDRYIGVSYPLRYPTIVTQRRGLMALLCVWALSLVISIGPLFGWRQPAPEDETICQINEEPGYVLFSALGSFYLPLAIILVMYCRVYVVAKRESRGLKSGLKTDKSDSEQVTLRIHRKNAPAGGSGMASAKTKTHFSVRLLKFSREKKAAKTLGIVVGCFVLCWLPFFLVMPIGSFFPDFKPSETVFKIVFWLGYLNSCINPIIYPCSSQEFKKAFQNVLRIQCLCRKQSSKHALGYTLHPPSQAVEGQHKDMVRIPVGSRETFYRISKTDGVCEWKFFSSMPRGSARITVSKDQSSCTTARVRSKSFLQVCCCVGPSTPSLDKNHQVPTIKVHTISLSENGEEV
SMILES,inhibition [1],inhibition [3],other results
CCCCN1CC[C@H]2[C@@H](C1)c1cccc3c1N2CC(=O)N3,inactive,inactive,inhibition [2]: inactive
O=C1CN2c3c(cccc3[C@@H]3CN(CCCO)CC[C@@H]32)N1,inactive,inactive,inhibition [4]: inactive
O=C1CN2c3c(cccc3[C@@H]3CN(CCCOc4ccc(Br)cc4)CC[C@@H]32)N1,–,inactive,–
CC1C(=O)Nc2cccc3c2N1[C@H]1CCN(CCCOc2ccc(F)cc2)C[C@@H]31 (stereo partly specified),inactive,–,–
O=C1CN2c3c(cccc3[C@@H]3CN(CCCCOc4ccc(F)cc4)CC[C@@H]32)N1,inactive,–,–
O=C1CN2c3c(cccc3[C@@H]3CN(CCCS(=O)(=O)c4ccc(F)cc4)CC[C@@H]32)N1,–,inactive,inhibition [5]: inactive; inhibition [4]: inactive
O=C1CN2c3c(cccc3[C@@H]3CN(CCCOc4ccc5c(c4)OCO5)CC[C@@H]32)N1,–,inactive,inhibition [2]: inactive
O=C1CN2c3c(cccc3[C@@H]3CN(CCOc4ccc(F)cc4)CC[C@@H]32)N1,inactive,–,–
O=C1CN2c3c(cccc3[C@@H]3CN(CCCOc4ccc(O)cc4)CC[C@@H]32)N1,–,inactive,–
COc1ccc(OCCCN2CC[C@H]3[C@@H](C2)c2cccc4c2N3CC(=O)N4)cc1,–,inactive,inhibition [2]: inactive
CN1CC[C@]23c4c5ccc(O)c4O[C@H]2[C@@H](O)C=C[C@H]3[C@H]1C5,–,–,Activity (Mus musculus [6]): Active; Activity (Mus musculus [7]): inactive; Activity (Mus musculus [8]): Active
Cc1cc(F)cc(C)c1OCCCN1CC[C@H]2[C@@H](C1)c1cccc3c1N2CC(=O)N3,–,inactive,inhibition [4]: inactive
NC(=O)c1cc(F)ccc1OCCCN1CC[C@H]2[C@@H](C1)c1cccc3c1N2CC(=O)N3,–,inactive,inhibition [4]: inactive
O=C1CN2c3c(cccc3[C@@H]3CN(CCCOc4ccc(F)cc4)CC[C@@H]32)N1,–,–,Activity [9]: Active
